# Assay results as given in the supplement of paper PMC10307832.
# Experiments:
# Experiment in all cases: relative viability (nuclei count vs DMSO), 5 days (fraction); higher = more cells survive
# Venetoclax + Crizotinib = compound: CC1(C)CCC(CN2CCN(c3ccc(C(=O)NS(=O)(=O)c4ccc(NCC5CCOCC5)c([N+](=O)[O-])c4)c(Oc4cnc5[nH]ccc5c4)c3)CC2)=C(c2ccc(Cl)cc2)C1 [Venetoclax] + C[C@@H](Oc1cc(-c2cnn(C3CCNCC3)c2)cnc1N)c1c(Cl)ccc(F)c1Cl [Crizotinib] (partner 1 µM)
# Method in brief: (§1)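 Cells from lung cancer lines were seeded into 1536-well plates and, one day later, dosed by pin tool. Treatments were either a single drug or a fixed dose of an anchor drug with five library-drug doses (not always all listed) in √10 steps. After 5 days, nuclei were stained in a one-step fixation (final 0.05% Triton X-100, 1% formaldehyde, 1 ug/ml Hoechst) and counted on 4× images, and relative viability is the treated-to-vehicle nuclei ratio, as the median of duplicate plates.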
# Venetoclax + Linsitinib = compound: CC1(C)CCC(CN2CCN(c3ccc(C(=O)NS(=O)(=O)c4ccc(NCC5CCOCC5)c([N+](=O)[O-])c4)c(Oc4cnc5[nH]ccc5c4)c3)CC2)=C(c2ccc(Cl)cc2)C1 [Venetoclax] + C[C@]1(O)C[C@@H](c2nc(-c3ccc4ccc(-c5ccccc5)nc4c3)c3c(N)nccn32)C1 [Linsitinib] (partner 1 µM)
# Method in brief: as §1
# Venetoclax + Foretinib = compound: CC1(C)CCC(CN2CCN(c3ccc(C(=O)NS(=O)(=O)c4ccc(NCC5CCOCC5)c([N+](=O)[O-])c4)c(Oc4cnc5[nH]ccc5c4)c3)CC2)=C(c2ccc(Cl)cc2)C1 [Venetoclax] + COc1cc2c(Oc3ccc(NC(=O)C4(C(=O)Nc5ccc(F)cc5)CC4)cc3F)ccnc2cc1OCCCN1CCOCC1 [Foretinib] (partner 0.25 µM)
# Method in brief: as §1
# Selumetinib + Pictilisib = compound: Cn1cnc2c(F)c(Nc3ccc(Br)cc3Cl)c(C(=O)NOCCO)cc21 [Selumetinib] + CS(=O)(=O)N1CCN(Cc2cc3nc(-c4cccc5[nH]ncc45)nc(N4CCOCC4)c3s2)CC1 [Pictilisib] (partner 1 µM)
# Method in brief: as §1
Cell Line,relative viability (Venetoclax + Crizotinib; first compound 0.01 µM),relative viability (Venetoclax + Crizotinib; first compound 0.03162 µM),relative viability (Venetoclax + Crizotinib; first compound 0.1 µM),relative viability (Venetoclax + Crizotinib; first compound 0.3162 µM),relative viability (Venetoclax + Crizotinib; first compound 1 µM),relative viability (Venetoclax + Linsitinib; first compound 0.01 µM),relative viability (Venetoclax + Linsitinib; first compound 0.03162 µM),relative viability (Venetoclax + Linsitinib; first compound 0.1 µM),relative viability (Venetoclax + Linsitinib; first compound 0.3162 µM),relative viability (Venetoclax + Linsitinib; first compound 1 µM),relative viability (Venetoclax + Foretinib; first compound 0.01 µM),relative viability (Venetoclax + Foretinib; first compound 0.03162 µM),relative viability (Venetoclax + Foretinib; first compound 0.1 µM),relative viability (Venetoclax + Foretinib; first compound 0.3162 µM),relative viability (Venetoclax + Foretinib; first compound 1 µM),relative viability (Selumetinib + Pictilisib; first compound 0.02 µM),relative viability (Selumetinib + Pictilisib; first compound 0.06325 µM),relative viability (Selumetinib + Pictilisib; first compound 0.2 µM),relative viability (Selumetinib + Pictilisib; first compound 0.6325 µM)
NCI-H2228,0.432,0.519,0.538,0.427,0.544,0.717,0.754,0.631,0.724,0.625,0.788,0.906,0.851,1,0.776,0.247,0.283,0.354,0.314
NCI-H1975,1.13,0.907,0.974,0.879,0.867,1.02,0.971,0.869,0.92,0.92,0.936,1.02,0.89,0.942,0.929,0.259,0.242,0.211,0.204
NCI-H727,0.838,0.922,0.912,0.976,0.673,0.334,0.344,0.201,0.293,0.296,1.16,0.719,0.834,1.08,0.884,0.309,0.214,0.155,0.234
COR-L23,0.631,0.696,0.601,0.778,0.543,0.864,0.953,0.879,0.897,0.815,0.884,1.03,1.04,0.866,0.883,0.84,0.699,0.784,0.713
COR-L 105,0.717,0.638,0.669,0.738,0.698,0.934,0.943,0.834,0.81,0.871,0.752,0.78,1.15,1,0.991,0.342,0.312,0.338,0.347
LK-2,0.192,0.214,0.262,0.248,0.253,0.727,0.621,0.516,0.548,0.551,1.15,1.34,1.27,1.18,0.891,0.761,0.547,0.565,0.544
201T,1.01,0.995,0.989,0.948,1.05,0.986,1.01,1.03,1.03,1.01,1.2,1.04,0.976,0.98,1.06,0.641,0.693,0.625,0.677
HCC-78,0.315,0.338,0.307,0.393,0.362,0.494,0.563,0.433,0.571,0.596,0.518,0.54,0.525,0.484,0.576,0.0694,0.181,0.134,0.216
NCI-H650,0.725,0.699,,0.701,0.641,0.912,0.843,,1.04,0.754,0.98,0.964,1.06,0.996,1.01,1,0.912,0.887,0.993
HARA,0.946,1.07,0.603,1.04,1.08,0.833,0.93,0.911,0.927,0.928,0.916,0.947,0.925,0.891,0.886,0.285,0.391,0.31,0.15
NCI-H661,0.987,1.09,1.12,,1.05,0.676,0.662,0.551,0.703,0.567,0.978,1.01,1.02,0.996,0.888,0.496,0.39,0.347,0.577
NCI-H2087,0.931,0.805,1.11,1.03,0.863,1.01,1.13,1.01,0.983,0.945,0.911,1.18,1.13,0.955,0.893,0.552,0.405,0.329,0.267
NCI-H2405,0.856,0.881,0.771,0.824,0.79,0.931,0.955,,0.989,0.9,1.03,1.08,1.01,0.999,1.04,0.382,0.303,0.269,0.26
NCI-H1944,1.18,1.17,0.791,1.04,1.12,1.4,1.28,1.15,1.16,1.23,1.06,0.904,0.847,0.911,0.912,0.338,0.337,0.275,0.319
NCI-H647,0.803,1.35,,0.974,0.722,0.996,1.15,,1.4,1.02,1.08,1.26,1.13,1.18,1.11,0.422,0.384,0.173,0.318
A549,0.707,0.668,0.886,0.649,0.61,0.586,0.597,0.524,0.568,0.558,0.896,0.871,0.989,0.912,0.883,0.441,0.377,0.256,0.238
NCI-H596,1.14,0.893,1.02,1.02,1.02,1.03,1.09,1.1,1.13,1.11,0.77,0.877,1,0.956,0.743,0.372,0.333,0.31,0.296
